# Laboratory results reported in PubChem BioAssay (NCI).
#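 Growth conditions: 96-well plates. Treatment: test compound, 48 hours, 5 concentrations. Analysis: linear interpolation between bracketing concentrations; unreached endpoints set to highest concentration. TGI marks complete inhibition of growth.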
# Experiments:
# Test in all cases: inhibition of tumour cell growth, NCI panel, 48 h
# OVCAR-3 ovarian = system: OVCAR-3 ovarian
# A549 NSCLC = system: A549 NSCLC
# KM12 colon = system: KM12 colon
# SF-268 CNS = system: SF-268 CNS
# DMS 114 small cell lung = system: DMS 114 small cell lung
# OVCAR-5 ovarian = system: OVCAR-5 ovarian
# XF 498 CNS = system: XF 498 CNS
# SNB-19 CNS = system: SNB-19 CNS
# DMS 273 small cell lung = system: DMS 273 small cell lung
# MALME-3M melanoma = system: MALME-3M melanoma
# RPMI-8226 leukemia = system: RPMI-8226 leukemia
# EKVX NSCLC = system: EKVX NSCLC
# LOX IMVI melanoma = system: LOX IMVI melanoma
# DLD-1 colon = system: DLD-1 colon
# UACC-257 melanoma = system: UACC-257 melanoma
# COLO 205 colon = system: COLO 205 colon
# HOP-92 NSCLC = system: HOP-92 NSCLC
# HOP-62 NSCLC = system: HOP-62 NSCLC
# SN12C renal = system: SN12C renal
# HL-60(TB) leukemia = system: HL-60(TB) leukemia
# OVCAR-8 ovarian = system: OVCAR-8 ovarian
# UACC-62 melanoma = system: UACC-62 melanoma
# SK-OV-3 ovarian = system: SK-OV-3 ovarian
# RXF-631 renal = system: RXF-631 renal
# SK-MEL-5 melanoma = system: SK-MEL-5 melanoma
# NCI-H522 lung = system: NCI-H522 lung
# NCI-H226 lung = system: NCI-H226 lung
# HCT-15 colon = system: HCT-15 colon
# NCI-H460 lung = system: NCI-H460 lung
# SW-620 colon = system: SW-620 colon
# UO-31 renal = system: UO-31 renal
# K-562 leukemia = system: K-562 leukemia
# SNB-75 CNS = system: SNB-75 CNS
# SK-MEL-28 melanoma = system: SK-MEL-28 melanoma
# SF-295 CNS = system: SF-295 CNS
# A498 renal = system: A498 renal
# IGROV1 ovarian = system: IGROV1 ovarian
# MOLT-4 leukemia = system: MOLT-4 leukemia
# SNB-78 CNS = system: SNB-78 CNS
# CCRF-CEM leukemia = system: CCRF-CEM leukemia
# OVCAR-4 ovarian = system: OVCAR-4 ovarian
# HCT-116 colon = system: HCT-116 colon
# HT29 colon = system: HT29 colon
# LXFL 529 NSCLC = system: LXFL 529 NSCLC
# CAKI-1 renal = system: CAKI-1 renal
# HCC-2998 colon = system: HCC-2998 colon
# NCI-H23 lung = system: NCI-H23 lung
# TK-10 renal = system: TK-10 renal
# U251 CNS = system: U251 CNS
# SK-MEL-2 melanoma = system: SK-MEL-2 melanoma
# M19-MEL melanoma = system: M19-MEL melanoma
# 786-0 renal = system: 786-0 renal
# ACHN renal = system: ACHN renal
# SF-539 CNS = system: SF-539 CNS
# HOP-18 NSCLC = system: HOP-18 NSCLC
# SR leukemia = system: SR leukemia
# M14 melanoma = system: M14 melanoma
# KM20L2 colon = system: KM20L2 colon
# RXF 393 renal = system: RXF 393 renal
compound,measurement,setting,value
CCOC(=O)[C@]12C3C=CC(C3)C1C(=O)C1OC12 (stereo not given in full),TGI,OVCAR-3 ovarian,> 100 µM
same,TGI,A549 NSCLC,> 100 µM
same,TGI,KM12 colon,> 100 µM
same,TGI,SF-268 CNS,> 100 µM
same,TGI,DMS 114 small cell lung,> 100 µM
same,TGI,OVCAR-5 ovarian,> 100 µM
same,TGI,XF 498 CNS,> 100 µM
same,TGI,SNB-19 CNS,> 100 µM
same,TGI,DMS 273 small cell lung,> 100 µM
same,TGI,MALME-3M melanoma,> 100 µM
same,TGI,RPMI-8226 leukemia,> 100 µM
same,TGI,EKVX NSCLC,> 100 µM
same,TGI,LOX IMVI melanoma,> 100 µM
same,TGI,DLD-1 colon,> 100 µM
same,TGI,UACC-257 melanoma,> 100 µM
same,TGI,COLO 205 colon,> 100 µM
same,TGI,HOP-92 NSCLC,> 100 µM
same,TGI,HOP-62 NSCLC,> 100 µM
same,TGI,SN12C renal,> 100 µM
same,TGI,HL-60(TB) leukemia,> 100 µM
same,TGI,OVCAR-8 ovarian,> 100 µM
same,TGI,UACC-62 melanoma,> 100 µM
same,TGI,SK-OV-3 ovarian,> 100 µM
same,TGI,RXF-631 renal,> 100 µM
same,TGI,SK-MEL-5 melanoma,> 100 µM
same,TGI,NCI-H522 lung,> 100 µM
same,TGI,NCI-H226 lung,> 100 µM
same,TGI,HCT-15 colon,> 100 µM
same,TGI,NCI-H460 lung,> 100 µM
same,TGI,SW-620 colon,> 100 µM
same,TGI,UO-31 renal,> 100 µM
same,TGI,K-562 leukemia,> 100 µM
same,TGI,SNB-75 CNS,> 100 µM
same,TGI,SK-MEL-28 melanoma,> 100 µM
same,TGI,SF-295 CNS,> 100 µM
same,TGI,A498 renal,> 100 µM
same,TGI,IGROV1 ovarian,> 100 µM
same,TGI,MOLT-4 leukemia,> 100 µM
same,TGI,SNB-78 CNS,> 100 µM
same,TGI,CCRF-CEM leukemia,> 100 µM
same,TGI,OVCAR-4 ovarian,> 100 µM
same,TGI,HCT-116 colon,> 100 µM
same,TGI,HT29 colon,> 100 µM
same,TGI,LXFL 529 NSCLC,> 100 µM
same,TGI,CAKI-1 renal,> 100 µM
same,TGI,HCC-2998 colon,> 100 µM
same,TGI,NCI-H23 lung,> 100 µM
same,TGI,TK-10 renal,> 100 µM
same,TGI,U251 CNS,> 100 µM
same,TGI,SK-MEL-2 melanoma,> 100 µM
same,TGI,M19-MEL melanoma,> 100 µM
same,TGI,786-0 renal,> 100 µM
same,TGI,ACHN renal,> 100 µM
same,TGI,SF-539 CNS,> 100 µM
same,TGI,HOP-18 NSCLC,> 100 µM
O=c1[nH]c2cc([N+](=O)[O-])ccc2nc1/C(=N/Nc1ccccc1)C(O)c1ccc(Cl)cc1Cl (stereo not given),TGI,OVCAR-3 ovarian,> 100 µM
same,TGI,A549 NSCLC,> 100 µM
same,TGI,KM12 colon,> 100 µM
same,TGI,SF-268 CNS,> 100 µM
same,TGI,DMS 114 small cell lung,44.7 µM
same,TGI,OVCAR-5 ovarian,> 100 µM
same,TGI,SR leukemia,82.4 µM
same,TGI,XF 498 CNS,> 100 µM
same,TGI,DMS 273 small cell lung,> 100 µM
same,TGI,MALME-3M melanoma,> 100 µM
same,TGI,RPMI-8226 leukemia,> 100 µM
same,TGI,EKVX NSCLC,> 100 µM
same,TGI,LOX IMVI melanoma,> 100 µM
same,TGI,M14 melanoma,> 100 µM
same,TGI,DLD-1 colon,> 100 µM
same,TGI,UACC-257 melanoma,> 100 µM
same,TGI,COLO 205 colon,> 100 µM
same,TGI,HOP-92 NSCLC,> 100 µM
same,TGI,HOP-62 NSCLC,> 100 µM
same,TGI,KM20L2 colon,> 100 µM
same,TGI,SN12C renal,> 100 µM
same,TGI,HL-60(TB) leukemia,> 100 µM
same,TGI,OVCAR-8 ovarian,> 100 µM
same,TGI,UACC-62 melanoma,> 100 µM
same,TGI,SK-OV-3 ovarian,> 100 µM
same,TGI,RXF-631 renal,> 100 µM
same,TGI,SK-MEL-5 melanoma,> 100 µM
same,TGI,NCI-H522 lung,> 100 µM
same,TGI,NCI-H226 lung,> 100 µM
same,TGI,HCT-15 colon,> 100 µM
same,TGI,NCI-H460 lung,> 100 µM
same,TGI,UO-31 renal,> 100 µM
same,TGI,K-562 leukemia,> 100 µM
same,TGI,SNB-75 CNS,> 100 µM
same,TGI,SF-295 CNS,> 100 µM
same,TGI,A498 renal,> 100 µM
same,TGI,IGROV1 ovarian,> 100 µM
same,TGI,MOLT-4 leukemia,> 100 µM
same,TGI,SNB-78 CNS,> 100 µM
same,TGI,CCRF-CEM leukemia,> 100 µM
same,TGI,OVCAR-4 ovarian,> 100 µM
same,TGI,HCT-116 colon,> 100 µM
same,TGI,HT29 colon,> 100 µM
same,TGI,HCC-2998 colon,> 100 µM
same,TGI,RXF 393 renal,> 100 µM
same,TGI,NCI-H23 lung,> 100 µM
same,TGI,TK-10 renal,> 100 µM
same,TGI,U251 CNS,> 100 µM
same,TGI,SK-MEL-2 melanoma,> 100 µM
same,TGI,M19-MEL melanoma,> 100 µM
same,TGI,786-0 renal,> 100 µM
same,TGI,ACHN renal,> 100 µM
same,TGI,SF-539 CNS,> 100 µM
same,TGI,HOP-18 NSCLC,> 100 µM
Cc1ccc(N=Nc2c(C)nn(-c3ccccc3)c2C)c(Br)c1,TGI,OVCAR-3 ovarian,> 100 µM
same,TGI,A549 NSCLC,> 100 µM
same,TGI,KM12 colon,> 100 µM
same,TGI,SF-268 CNS,> 100 µM
same,TGI,DMS 114 small cell lung,> 100 µM
same,TGI,OVCAR-5 ovarian,> 100 µM
same,TGI,XF 498 CNS,> 100 µM
same,TGI,SNB-19 CNS,> 100 µM
same,TGI,DMS 273 small cell lung,> 100 µM
same,TGI,MALME-3M melanoma,> 100 µM
same,TGI,RPMI-8226 leukemia,> 100 µM
same,TGI,EKVX NSCLC,> 100 µM
same,TGI,LOX IMVI melanoma,> 100 µM
same,TGI,M14 melanoma,> 100 µM
same,TGI,DLD-1 colon,> 100 µM
same,TGI,UACC-257 melanoma,> 100 µM
same,TGI,COLO 205 colon,> 100 µM
same,TGI,HOP-92 NSCLC,> 100 µM
same,TGI,HOP-62 NSCLC,> 100 µM
same,TGI,KM20L2 colon,> 100 µM
same,TGI,SN12C renal,> 100 µM
same,TGI,HL-60(TB) leukemia,> 100 µM
same,TGI,OVCAR-8 ovarian,> 100 µM
same,TGI,UACC-62 melanoma,> 100 µM
same,TGI,SK-OV-3 ovarian,> 100 µM
same,TGI,RXF-631 renal,> 100 µM
same,TGI,SK-MEL-5 melanoma,> 100 µM
same,TGI,NCI-H226 lung,> 100 µM
same,TGI,HCT-15 colon,> 100 µM
same,TGI,NCI-H460 lung,> 100 µM
same,TGI,SW-620 colon,> 100 µM
same,TGI,K-562 leukemia,> 100 µM
same,TGI,SNB-75 CNS,> 100 µM
same,TGI,SK-MEL-28 melanoma,> 100 µM
same,TGI,SF-295 CNS,> 100 µM
same,TGI,A498 renal,> 100 µM
same,TGI,IGROV1 ovarian,> 100 µM
same,TGI,MOLT-4 leukemia,> 100 µM
same,TGI,SNB-78 CNS,> 100 µM
same,TGI,CCRF-CEM leukemia,> 100 µM
same,TGI,OVCAR-4 ovarian,> 100 µM
same,TGI,HCT-116 colon,> 100 µM
same,TGI,HT29 colon,> 100 µM
same,TGI,LXFL 529 NSCLC,> 100 µM
same,TGI,CAKI-1 renal,> 100 µM
same,TGI,HCC-2998 colon,> 100 µM
same,TGI,RXF 393 renal,> 100 µM
same,TGI,NCI-H23 lung,> 100 µM
same,TGI,TK-10 renal,> 100 µM
same,TGI,U251 CNS,> 100 µM
same,TGI,SK-MEL-2 melanoma,> 100 µM
same,TGI,M19-MEL melanoma,> 100 µM
same,TGI,786-0 renal,> 100 µM
same,TGI,ACHN renal,> 100 µM
same,TGI,SF-539 CNS,> 100 µM
same,TGI,HOP-18 NSCLC,> 100 µM
